Measured values taken from US6410585B1, “Inhibitors of protein tyrosine phosphatase” (priority 1997, dated 2002).
Where “and” joins values, the source holds several entries; their conditions need not be identical. Equal values may be shown once. Read-outs that look alike come from different tables or passages of the source.

Molecular target: T1, rat PTP1 (Rattus norvegicus, UniProt P20417)
T1 construct: a C-terminal truncation of rat PTP1 (amino acid residues 1-322); GST (N, cleaved yes); made in house; host or cells: E. coli strain TG-1 (pGEX-2T)
T1 sequence (P20417 1-322): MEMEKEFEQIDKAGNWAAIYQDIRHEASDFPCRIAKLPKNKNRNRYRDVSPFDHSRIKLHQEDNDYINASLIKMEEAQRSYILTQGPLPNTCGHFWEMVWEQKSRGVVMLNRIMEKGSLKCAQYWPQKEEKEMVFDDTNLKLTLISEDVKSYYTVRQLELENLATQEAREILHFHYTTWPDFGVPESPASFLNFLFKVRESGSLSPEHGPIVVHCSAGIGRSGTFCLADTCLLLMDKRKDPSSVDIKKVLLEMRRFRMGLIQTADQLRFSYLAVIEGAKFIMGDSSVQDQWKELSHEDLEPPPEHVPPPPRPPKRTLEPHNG
Assay: PTP1 assay, pNPP hydrolysis (rate of change in A405)
Assay type: biochemical
Source text: PTP1 Assays: A construct, which consisted of a C-terminal truncation of rat PTP1 (amino acid residues 1-322) (cloned from a rat brain library) with an N-terminal glutathione S-transferase (GST) tag and an adjacent thrombin cleavage site, was inserted into vector plasmid pGEX-2T and transformed into E. coli strain TG-1 under the control of a lac promoter (K. L. Guan and J. E. Dixon (1991) Eukaryotic proteins expressed in Escherichia coli: an improved thrombin cleavage and purification procedure of fusion proteins with glutathione S-transferase. Analyt. Biochem. 192: 262-267). The GST-fusion protein was purified on a glutathione agarose affinity column, the GST tag was cleaved with thrombin, and the active enzyme was recovered for use in an assay to identify PTP inhibitors.
PTP1 activity is measured using either p-nitrophenol phosphate (pNPP) or a triphosphopeptide (that matches residues 1142 through 1153 of the β-subunit and the insulin receptor) as substrate in a 96-well microtiter plate format. An assay pH of 7.2 is used for standard assays (measured 405=9800 at pH 7.2).
Standard assays are conducted at room temperature in a total volume of 0.2 ml that contains Hepes buffer (50 mM, pH 7.2), NaCl (50 mM), EDTA (1 mM), DTT (1 mM), bovine serum albumin (1 mg/ml), pNPP (1 mM) and PTP1 (35 ng/ml). Compounds (2 μl of 10 mM solutions) are pipetted into wells of microtiter plates followed by 198 μl of premixed reaction mix (with PTP1 and pNPP added immediately before use). The rate of change in A405 is recorded for 60 min. Two wells on each plate contain DMSO controls and two wells contain sodium orthovanadate (1 mM) which inhibits PTP1-catalyzed hydrolysis of pNPP completely. Data are expressed as percent inhibition relative to the average of the DMSO controls measured on the same microtiter plate.

[1] = inhibition of pNPP-hydrolysis, compound concentration 1 μM, read-out: % Inhibition
[2] = inhibition of pNPP-hydrolysis, compound concentration 10 μM, read-out: % Inhibition
[3] = inhibition of pNPP-hydrolysis, compound concentration 100 μM, read-out: % Inhibition
[4] = Conc 1 uM, pNPP hydrolysis, Table 1, read-out: PTP1 Inhib % Inhib
[5] = Conc 10 uM, pNPP hydrolysis, Table 1, read-out: PTP1 Inhib % Inhib
[6] = Conc 100 uM, pNPP hydrolysis, Table 1, read-out: PTP1 Inhib % Inhib
[7] = Conc 1 uM, pNPP hydrolysis, Table 2, read-out: PTP1 Inhib PTP1N. % Inhib
[8] = Conc 10 uM, pNPP hydrolysis, Table 2, read-out: PTP1 Inhib PTP1N. % Inhib
[9] = Conc 100 uM, pNPP hydrolysis, Table 2, read-out: PTP1 Inhib PTP1N. % Inhib

inhibition at 1 µM [4]	inhibition at 10 µM [5]	inhibition at 100 µM [6]	Compound	also measured
–	–	–	CC(C)(C)OC(=O)N[C@@H](Cc1ccccc1)C(=O)N[C@H](CO)Cc1ccc(OCC(=O)O)c(C(=O)O)c1 [Example 148, 5-[(2S)-2-({(2S)-2-[(tert-butoxycarbonyl)amino]-3-phenylpropanoyl}amino)-3-hydroxypropyl]-2-(carboxymethoxy)benzoic Acid]	inhibition at 1 µM [1]: 5%; inhibition at 10 µM [2]: 31%; inhibition at 100 µM [3]: 80%
1%	33%	83%	CCCCCNC(=O)[C@H](Cc1ccc(OC(C(=O)O)C(=O)O)cc1)NC(=O)C(CC(=O)O)CC(=O)O	–
4%	19%	63%	NS(=O)(=O)c1ccc(CCNC(=O)C(Cc2ccc(OC(COO)COO)cc2)NC(=O)CCC(=O)O)cc1 (stereo not drawn)	–
–	–	–	CCCCCNC(=O)C(Cc1ccc(OC(COO)COO)cc1)NC(=O)C(Cc1ccc(OC(C)(C)C)cc1)NC(=O)CCC(=O)O (stereo not drawn)	inhibition at 1 µM [7]: 37%; inhibition at 10 µM [8]: 83%; inhibition at 100 µM [9]: 97%
–	–	–	O=C(O)COc1ccc(C[C@H](NC(=O)c2ccoc2)C(=O)NCCCCc2ccccc2)cc1C(=O)O [Example 154-15, 2-(carboxymethoxy)-5-{(2S)-2-(3-furoylamino)-3-oxo-3-[(4-phenylbutyl)amino]propyl}benzoic acid]	inhibition at 1 µM [1]: 80%; inhibition at 10 µM [2]: 31%; inhibition at 100 µM [3]: 97%
–	–	–	CCCCCNC(=O)C(Cc1ccc(OC(COO)COO)cc1)NC(=O)C(Cc1ccc(OC(C)(C)C)cc1)NC(=O)OC(C)(C)C (stereo not drawn)	inhibition at 1 µM [7]: 5%; inhibition at 10 µM [8]: 36%; inhibition at 100 µM [9]: 89%
16%	62%	94%	CCCCCNC(=O)C(Cc1ccc(OC(C(=O)O)C(=O)O)cc1)NC(=O)C(CC(=O)O)NC(=O)OC(C)(C)C (stereo not drawn)	–
–	–	–	CCCCCNC(=O)C(Cc1ccc(OC(COO)COO)cc1)NC(=O)C(Cc1ccc(OCc2ccccc2)cc1)N(C)C(=O)OC(C)(C)C (stereo not drawn)	inhibition at 1 µM [7]: 0%; inhibition at 10 µM [8]: 0%; inhibition at 100 µM [9]: 32%
2%	20%	72%	CCCCCNC(=O)[C@H](Cc1ccc(OC(C(=O)O)C(=O)O)cc1)NC(=O)CC1(CC(=O)O)CCCC1	–
–	–	–	CCCCCNC(=O)C(Cc1ccc(OC(COO)COO)cc1)NC(=O)CCC(=O)O (stereo not drawn) [drawing 81]	PTP1 Inhib % Inhib (Conc 1 uM, pNPP hydrolysis, Table 1): 1%; PTP1 Inhib % Inhib (Conc 10 uM, pNPP hydrolysis, Table 1): 25%; PTP1 Inhib % Inhib (Conc 100 uM, pNPP hydrolysis, Table 1): 81% and 76%
–	–	–	CC(C)(C)OC(=O)N[C@@H](Cc1ccccc1)C(=O)N[C@H](Cc1ccc(OCC(=O)O)c(C(=O)O)c1)C(=O)NCCCN1CCCC1=O [Example 157-12, 5-((2R)-2-({(2S)-2-[(tert-Butoxycarbonyl)amino]-3-phenylpropanoyl}amino)-3-oxo-3-{[3-(2-oxo-1-pyrrolidinyl)propyl]amino}propyl)-2-(carboxymethoxy)benzoic Acid]	inhibition at 1 µM [1]: 27%; inhibition at 10 µM [2]: 76%; inhibition at 100 µM [3]: 95%
0%	6%	35%	O=C(O)CCC(=O)N[C@@H](Cc1ccc(OC(C(=O)O)C(=O)O)cc1)C(=O)NCCCN1CCOCC1	–
–	–	–	CCCCCNC(=O)[C@H](Cc1ccc(OCC(=O)O)c(C(=O)O)c1)NC(=O)c1cnc(Cl)c(Cl)c1 [Example 154-2, 2-(carboxymethoxy)-5-[(2S)-2-{[(5,6-dichloro-3-pyridinyl)carbonyl]amino}-3-oxo-3-(pentylamino)propyl]benzoic acid]	inhibition at 1 µM [1]: 23%; inhibition at 10 µM [2]: 72%; inhibition at 100 µM [3]: 95%
27%	75%	96%	CCCCCNC(=O)[C@H](Cc1ccc(OC(C(=O)O)C(=O)O)cc1)NC(=O)C(CC(=O)O)NC(=O)CCC(=O)O (stereo partly drawn)	–
–	–	–	CCCCCNC(=O)C(Cc1ccc(OC(COO)COO)cc1)NC(=O)N(Cc1ccc(CC(=O)O)cc1)Cc1cccc(C(F)(F)F)c1 (stereo not drawn)	inhibition at 1 µM [7]: 4%; inhibition at 10 µM [8]: 51%; inhibition at 100 µM [9]: 92%
–	–	–	CC(C)(C)OC(=O)N[C@@H](Cc1ccccc1)C(=O)N[C@@H](Cc1ccc(OCC(=O)O)c(C(=O)O)c1)C(=O)NCCCO [Example 157-21, 5-{(2S)-2-({(2S)-2-[(tert-Butoxycarbonyl)amino]-3-phenylpropanoyl}amino)-3-[(3-hydroxypropyl)amino]-3-oxopropyl}-2-(carboxymethoxy)benzoic Acid]	inhibition at 1 µM [1]: 24%; inhibition at 10 µM [2]: 73%; inhibition at 100 µM [3]: 95%
1%	20%	72%	CCCCCNC(=O)[C@H](Cc1ccc(OC(C(=O)O)C(=O)O)cc1)NC(=O)[C@@H]1CCCC[C@H]1C(=O)O	–
2%	3%	26%	O=C(O)CCC(=O)N[C@@H](Cc1ccc(OC(C(=O)O)C(=O)O)cc1)C(=O)NCCCn1ccnc1	–
3%	17%	74%	CCCCCCNC(=O)[C@H](Cc1ccc(OC(C(=O)O)C(=O)O)cc1)NC(=O)CCC(=O)O	–
–	–	–	CCCCCNC(=O)C(Cc1ccc(OC(COO)COO)cc1)NC(=O)C(Cc1ccc(OC)cc1)NC(=O)OC(C)(C)C (stereo not drawn)	inhibition at 1 µM [7]: 8%; inhibition at 10 µM [8]: 36%; inhibition at 100 µM [9]: 90%
0%	21%	73%	O=C(O)CCC(=O)N[C@@H](Cc1ccc(OC(C(=O)O)C(=O)O)cc1)C(=O)NCC1CCCCC1	–
25%	76%	96%	CCCCCNC(=O)[C@H](Cc1ccc(OC(C(=O)O)C(=O)O)cc1)NC(=O)[C@H](CCC(=O)O)NC(=O)CCC(=O)O	–
–	–	–	O=C(O)COc1ccc(C[C@H](NS(=O)(=O)c2ccc(F)cc2F)C(=O)NCCCCc2ccc(Cl)cc2)cc1C(=O)O [Example 156-1, 2-(carboxymethoxy)-5-((2S)-3-{[4-(4-chlorophenyl)butyl]amino}-2-{[(2,4-difluorophenyl)sulfonyl]amino}-3-oxopropyl)benzoic acid]	inhibition at 1 µM [1]: 18%; inhibition at 10 µM [2]: 69%; inhibition at 100 µM [3]: 95%
4%	3%	51%	CCCCCCCCCCNC(=O)C(Cc1ccc(OC(COO)COO)cc1)NC(=O)CCC(=O)O (stereo not drawn)	–
5%	34%	83%	CCCCCNC(=O)[C@H](Cc1ccc(OC(C(=O)O)C(=O)O)cc1)NC(=O)[C@H](CCC(=O)O)NC(=O)OC(C)(C)C	–
–	–	–	CC(C)(C)OC(=O)N[C@@H](Cc1ccccc1)C(=O)N[C@@H](Cc1ccc(OCC(=O)O)c(C(=O)O)c1)C(=O)NCCO [Example 157-3, 5-{(2S)-2-({(2S)-2-[(tert-Butoxycarbonyl)amino]-3-phenylpropanoyl}amino)-3-[(2-hydroxyethyl)amino]-3-oxopropyl}-2-(carboxymethoxy)benzoic]	% Inhibition (inhibition of pNPP-hydrolysis, compound concentration 1 μM): 22%; % Inhibition (inhibition of pNPP-hydrolysis, compound concentration 10 μM): 72%; % Inhibition (inhibition of pNPP-hydrolysis, compound concentration 100 μM): 94%
–	–	–	O=C(O)COc1ccc(C[C@H](NC(=O)c2ccc(Cl)cc2)C(=O)NCCCCc2ccccc2)cc1C(=O)O [Example 154-9, 2-(carboxymethoxy)-5-{(2S)-2-[(4-chlorobenzoyl)amino]-3-oxo-3-[(4-phenylbutyl)amino]propyl}benzoic acid]	inhibition at 1 µM [1]: 37%; inhibition at 10 µM [2]: 85%; inhibition at 100 µM [3]: 97%
4%	20%	74%	CCCCCNC(=O)[C@H](Cc1ccc(OC(C(=O)O)C(=O)O)cc1)NC(=O)CC(=O)O	–
